Two compounds from US12048700B2 (Merck Patent GmbH, priority 2017, dated 2024) can be followed below.

For series [1] the following is noted: 25° C./60% rh.
Series [2] can be described thus: Water content of the sample before DVS (TG-FTIR mass loss or Karl Fischer titration).
Experimental: Thermogravimetric measurements were carried out with a Netzsch Thermo-Microbalance TG 209 coupled to a Bruker FTIR Spectrometer Vector 22 (sample pans with a pinhole, N2 atmosphere, heating rate 10 K/min).
A sample of crystalline monosodium salt according to at least one of the previous examples is investigated by thermogravimetry coupled with infrared spectroscopy (TG-FTIR). Thermogravimetric measurements were done with a sample mass of about 6 mg. […] The same sample is now examined by dynamic vapor sorption analysis (DVS). About 20 mg of sample are placed put into an aluminum sample pan. Humidity change rates of 5% per hour were used. […] The sample was placed on an aluminum holder on top of a microbalance and allowed to equilibrate at 50% RH before starting the pre-defined humidity program in the following way: • (1) 2 hours at 50% relative humidity • (2) 50→0% relative humidity (5%/hour); 10 hours at 0% relative humidity • (3) 0→75% relative humidity (5%/hour); 5 hours at 75% relative humidity • (4) 75→0% relative humidity (5%/hour); 10 hours at 0% relative humidity • (5) 0→50% relative humidity (5%/hour); 2 hours at 50% relative humidity
A sample of crystalline calcium salt of MTHF is examined by Karl Fischer titration to evaluate the water content. […]
The conditions of series [3]: 40° C./75% rh.
For series [4] the following is noted: DVS; for removal of water on drying (in words): ten hours of nitrogen purge at room temperature. The protocol:
DVS measurements are typically performed at 25° C. with an SPS11-100n “Sorptions Prüfsystem” from ProUmid (formerly “Projekt Messtechnik”), August-Nagel-Str. 23, 89079 Ulm (Germany).

For series [5] the following is noted: room temperature; suspension stirred 30 minutes with excess solid.
The conditions of series [6]: room temperature; purified/de-ionized water; vigorously agitated and briefly sonicated. The protocol: 2.535 ml of purified/de-ionized water (for instance water for chromatography) is added to the solid using an adjustable volumetric pipette. The mixture is vigorously agitated at room temperature and briefly sonicated.

Like-named read-outs stand apart in the source and are kept apart here.

For the compound `CN1c2c(nc(N)[nH]c2=O)NC[C@@H]1CNc1ccc(C(=O)N[C@@H](CCC(=O)[O-])C(=O)O)cc1.[Na+]` [5-methyl-(6S)-tetrahydrofolic acid monosodium salt], the “5-methyl-(6S)-tetrahydrofolic acid content” value in series [1] (0 months) came out at 94.7 % w/w; in series [1] (3 months), 93.0 % w/w; in series [1] (6 months), 94.2 % w/w; in series [1] (9 months) it was 95.6 % w/w; in series [1] (12 months), 94.1 % w/w; in series [3] (0 months), 94.7 % w/w. In addition, the “5-methyl-(6S)-tetrahydrofolic acid content” value in series [3] (3 months) was 92.7 % w/w; in series [3] (6 months) it was “(81.8)^1 % w/w”; in series [3] (9 months), 94.8 % w/w; in series [3] (12 months), 92.9 % w/w. The “mass loss at 200° C. (TG-FTIR), essentially the water content” value in series [2] (after drying in air at room temperature, sample mass about 6 mg) is reported as “about 1.3%”. The “hygroscopicity compared with the calcium salt (in words)” value in series [4] (relative humidity 20% to 75%) is given as “less hygroscopic”. For the same compound, the “removal of water on drying (in words)” value is reported as “all the water of the sample is essentially removed” in series [4] (listed as crystalline monosodium salt, monosodium salt) and “water can essentially be removed” in series [4] (listed as crystalline sodium salt of 5-methyl-(6S)-tetrahydrofolic acid, monosodium salt).

For `CN1c2c([nH]c(N)nc2=O)NC[C@@H]1CNc1ccc(C(=O)N[C@@H](CCC(=O)[O-])C(=O)[O-])cc1.[Ca+2]` [calcium salt of 5-methyl-(6S)-tetrahydrofolic acid], the “5-methyl-(6S)-tetrahydrofolic acid content” value is given as 80.7 % w/w in series [1] (0 months); 79.0 % w/w in series [1] (3 months); 77.7 % w/w in series [1] (6 months); 78.5 % w/w in series [1] (9 months); 77.9 % w/w in series [1] (12 months); 80.7 % w/w in series [3] (0 months). Further, the “5-methyl-(6S)-tetrahydrofolic acid content” value is 78.5 % w/w in series [3] (3 months), 78.0 % w/w in series [3] (6 months), 78.8 % w/w in series [3] (9 months) and 77.8 % w/w in series [3] (12 months). The solubility in water in series [5] was 7100 µg/mL. The “water content (Karl Fischer titration)” value in series [2] (sample before DVS) was determined as 12.4%. The “removal of water on drying (in words)” value in series [4] was “less than half of the water can be removed”. The “kinetic solubility in water” value in series [6] is recorded as “smaller than 10 mg per 1 ml of water”.
